Results reported in patent US10828315B2 (Madrigal Pharmaceuticals, Inc., priority 2013, dated 2020).
Several values for one entry are separate records, joined by “and”; a condition that tells them apart may be missing. Equal entries are not always repeated. Where two headings read alike, the source gives them in different places.

Experiments:
[1] = tested on: HER2; experiment: HER2 degradation assay with BT-474 cell line (Example 12, FACS); type: cell-based, human
[2] = tested on: human breast cancer cell line BT-474; experiment: Cytotoxicity assay (CellTiter-Glo, 72 h), BT-474; type: cell-based; settings: read-out: Cytotoxicity (IC50, nM) BT-474
Experimental: (§1) Cytotoxicity of SDC-TRAP molecules was determined in three cancer cell lines. […] 80 μL of CellTiter-Glo was added to each well, followed by room temperature incubation in the dark for 15 minutes. Cell was determined by luminescence. IC50 was calculated using XLfit™ software.

[3] = tested on: human urinary bladder cancer cell line RT-112; experiment: Cytotoxicity assay (CellTiter-Glo, 72 h), RT-112; type: cell-based; settings: read-out: Cytotoxicity (IC50, nM) RT-112
Experimental: as §1

[4] = tested on: human urinary bladder cancer cell line SW780; experiment: Cytotoxicity assay (CellTiter-Glo, 72 h), SW780; type: cell-based; settings: read-out: Cytotoxicity (IC50, nM) SW-780
Experimental: as §1

[5] = Artificial membrane permeability assay (PAMPA); settings: incubation 5 h, first table
[6] = Mouse plasma stability protocol, up to 1 h (Examples 16-18)
[7] = tested on: HER2; experiment: HER2 degradation in BT-474 cells (Example 3, Methods 1 and 2); type: cell-based, human
Text: This example illustrates how a HER2 degradation assay may be used as a test to determine and select Hsp90-targeting moieties suitable for use in SDC-TRAPs of the invention, and further illustrates the ability of SDC-TRAPs to target cells preferentially expressing Hsp90. Such a test may further be used to determine the Hsp90 binding ability of SDC-TRAPs of the invention, as well as through competitive binding assays and cell-based Hsp90 client protein degradation assays known in the art.
After treatment, each cytoplasmic sample is prepared from 1×10^6 cells by incubation of cell lysis buffer (#9803, Cell Signaling Technology) on ice for 10 minutes. The resulting supernatant used as the cytosol fractions is dissolved with sample buffer for SDS-PAGE and run on a SDS-PAGE gel, blotted onto a nitrocellulose membrane by using semi-dry transfer. Non-specific binding to nitrocellulose is blocked with 5% skim milk in TBS with 0.5% Tween at room temperature for 1 hour, then probed with anti-HER2/ErB2 mAb (rabbit IgG, #2242, Cell Signaling) and anti-Tubulin (T9026, Sigma) as housekeeping control protein. HRP-conjugated goat anti-rabbit IgG (H+L) and HRP-conjugated horse anti-mouse IgG (H+L) are used as secondary Ab (#7074#7076, Cell Signaling) and LumiGLO reagent, 20× Peroxide (#7003, Cell Signaling) is used for visualization. The Hsp90 client protein HER2 is degraded when cells are treated with Hsp90-targeting moieties or SDC-TRAPs of the invention.
BT-474 cells are plated in the interior 60 wells of a 96 well black clear bottom plate (20,000 cells/well) in DMEM medium, with DMEM media in the surrounding 36 wells, and incubated at 37° C. with 5% CO2 overnight. On the second day, concentration response curve source plates are produced (10 point, 3-fold dilution of compounds in DMSO) followed by a 1:30 dilution in an intermediate dilution plate containing DMEM. Compound is transferred from the intermediate plate to the cell plate at a dilution of 1:10. The cells are then incubated at 37° C. with 5% CO2 for 24 hours.
Cells are then fixed in 4% phosphate-buffered paraformaldehyde for 30 minutes at room temperature and then permeabilized by washing five times with 0.1% Triton X-100 in PBS for 5 minutes at room temperature on a shaker. […] Cells are washed five times with 0.1% Tween-20 in PBS for 5 minutes at room temperature on a shaker and incubated with fluorescently-labeled secondary antibody (LI-COR, #926-32211) diluted 1:1000 in blocking buffer, and DRAQ5 nuclear stain (Biostatus Limited, # DRAQ5) diluted 1:10,000, at room temperature on a shaker for 1 hour. Cells are washed 5 times with 0.1% Tween-20 in PBS for 5 minutes at room temperature on a shaker and imaged on a LI-COR Odyssey imaging station. The raw data is normalized to DRAQ5 and the HER2 EC50 is calculated using XLfit™.

[8] = mouse, plasma, 1 h
[9] = % Remaining of parent after 1 h incubation in mouse plasma at 37° C. (10 μM)
[10] = Tissue Distribution Data for SDC-TRAP-0098, Time (h) 0.083
[11] = Tissue Distribution Data for SDC-TRAP-0098, Time (h) 1
[12] = Tissue Distribution Data for SDC-TRAP-0098, Time (h) 6
[13] = Tissue Distribution Data for SDC-TRAP-0098, Time (h) 24

Structure (SMILES): CCNC(=O)c1nnc(-c2cc(C(C)C)c(O)cc2O)n1-c1ccc2c(c1)CN(Cc1cc(OC)c(OC(=O)Nc3cccc4c3CN(C3CCC(=O)NC3=O)C4=O)c(OC)c1)C2 (stereo not shown) [SDC-TRAP-0196, 4-((5-(3-(2,4-dihydroxy-5-isopropylphenyl)-5-(ethylcarbamoyl)-4H-1,2,4-triazol-4-yl)isoindolin-2-yl)methyl)-2,6-dimethoxyphenyl (2-(2,6-dioxopiperidin-3-yl)-1-oxoisoindolin-4-yl)carbamate]
- IC50 [1]: 89 nM
- IC50 ([2]; BT-474, 72 h): 17 nM
- IC50 ([3]; RT-112, 72 h): 31 nM
- IC50 ([4]; SW780, 72 h): > 10000 nM
- Mass Retention [5]: 22.3%
- % Remaining (1 h) [6, 9]: 66.2%

Structure (SMILES): CC(C)c1cc(-c2nnc(O)n2-c2ccc3c(ccn3CCN(C)C(=O)CCCc3nc4cc(N(CCCl)CCCl)ccc4n3C)c2)c(O)cc1O [SDC-TRAP-0039, (5-(bis(2-chloroethyl)amino)-1-methyl-1H-benzo[d]imidazol-2-yl)-N-(2-(5-(3-(2,4-dihydroxy-5-isopropylphenyl)-5-hydroxy-4H-1,2,4-triazol-4-yl)-1H-indol-1-yl)ethyl)-N-methylbutanamide]
- IC50 [7]: 2940 nM
- IC50 ([1]; BT-474 cells, overnight): 2920 nM

Structure (SMILES): CCc1c2c(nc3ccc(OC(=O)N4CCC(Cc5ccc(-n6c(O)nnc6-c6cc(C(C)C)c(O)cc6O)cc5)CC4)cc13)-c1cc3c(c(=O)n1C2)COC(=O)C3(O)CC (stereo not shown) [SDC-TRAP-0031, 4,11-diethyl-4-hydroxy-3,14-dioxo-3,4,12,14-tetrahydro-1H-pyrano[3′,4′:6,7]indolizino[1,2-b]quinolin-9-yl 4-(4-(3-(2,4-dihydroxy-5-isopropylphenyl)-5-hydroxy-4H-1,2,4-triazol-4-yl)benzyl)piperidine-1-carboxylate]
- IC50 [7]: 2920 nM
- IC50 [1]: 1270 nM

Structure (SMILES): CC(C)c1cc(-c2nnc(O)n2-c2ccc(CN3CCN(C(=O)ONC(=O)CCCCCCC(=O)Nc4ccccc4)CC3)cc2)c(O)cc1O [SDC-TRAP-0117, N1-((4-(4-(3-(2,4-dihydroxy-5-isopropylphenyl)-5-hydroxy-4H-1,2,4-triazol-4-yl)benzyl)piperazine-1-carbonyl)oxy)-N8-phenyloctanediamide]
- IC50 ([2]; BT-474, 72 hours): 452 nM
- IC50 ([3]; RT-112, 72 hours): 152 nM
- IC50 ([4]; SW780, 72 hours): 284 nM
- % Remaining (1 h) ([8]; 10 µM): 3.97%

Structure (SMILES): COc1ccc(-c2cnoc2-c2cc(OC)c(OC)c(OC)c2)cc1OC(=O)N1CCN(Cc2ccc(-n3c(O)nnc3-c3cc(C(C)C)c(O)cc3O)cc2)CC1 [SDC-TRAP-0098, 2-Methoxy-5-(5-(3,4,5-trimethoxyphenyl)isoxazol-4-yl)phenyl-4-(4-(3-(2,4-dihydroxy-5-isopropylphenyl)-5-hydroxy-4H-1,2,4-triazol-4-yl)benzyl) piperazine-1-carboxylate]
- IC50 [1]: 232 nM
- IC50 ([2]; BT-474, 72 h): 41 nM
- IC50 ([3]; RT-112, 72 h): 22 nM
- IC50 ([4]; SW780, 72 h): 257 nM
- Tumor Conc. [10]: 5.02 nmol/g of tissue
- Tumor/Plasma Ratio [10]: 0.01
- Tumor Conc. [11]: 4.62 nmol/g of tissue
- Tumor/Plasma Ratio [11]: 0.62
- Tumor Conc. [12]: 3.18 nmol/g of tissue
- Tumor/Plasma Ratio [12]: 8.22
- Tumor Conc. [13]: 0.920 nmol/g of tissue
- Tumor/Plasma Ratio [13]: 300
- Tumor Conc. (Tissue Distribution Data for SDC-TRAP-0098, Time (h) 48): 0.182 nmol/g of tissue
- % Remaining (1 h) [6, 9]: 96.0%
- % Remaining (1 h) ([6]; mouse plasma, 1 h): 96.0%

Structure (SMILES): C=CCNC1=C2C[C@@H](C)C[C@H](OC)[C@H](O)[C@@H](C)/C=C(\C)[C@H](OC(N)=O)[C@@H](OC)/C=C\C=C(/C)C(=O)NC(=CC1=O)C2=O [17-AAG, reference compound]
- degradation of HER2 (western blot) ([7]; 0.5 μM, overnight): partial degradation of HER2

Structure (SMILES): CCc1c2c(nc3ccc(OC(=O)N4CCN(C(=O)Cn5ccc6cc(-n7c(O)nnc7-c7cc(C(C)C)c(O)cc7O)ccc65)CC4C)cc13)-c1cc3c(c(=O)n1C2)COC(=O)C3(O)CC (stereo not shown) [SDC-TRAP-0201, 4,11-Diethyl-4-hydroxy-3,14-dioxo-3,4,12,14-tetrahydro-1H-pyrano[3′,4′:6,7]indolizino[1,2-b]quinolin-9-yl 4-(2-(5-(3-(2,4-dihydroxy-5-isopropylphenyl)-5-hydroxy-4H-1,2,4-triazol-4-yl)-1H-indol-1-yl)acetyl)-2-methylpiperazine-1-carboxylate]
- IC50 [1]: 4670 nM
- IC50 ([2]; BT-474, 72 h): 1410 nM
- IC50 ([3]; RT-112, 72 h): 72 nM
- IC50 ([4]; SW780, 72 h): 1100 nM

Structure (SMILES): CC(C)c1cc(-c2nnc(O)n2-c2ccc(CN3CCN(C(=O)c4ccc(CCc5c[nH]c6nc(N)[nH]c(=O)c56)cc4)CC3)cc2)c(O)cc1O [SDC-TRAP-0068, 2-amino-5-(4-(4-(4-(3-(2,4-dihydroxy-5-isopropylphenyl)-5-hydroxy-4H-1,2,4-triazol-4-yl)benzyl)piperazine-1-carbonyl)phenethyl)-3H-pyrrolo[2,3-d]pyrimidin-4(7H)-one]
- IC50 ([2]; BT-474, 72 hours): 70 nM
- IC50 ([3]; RT-112, 72 hours): 74 nM
- IC50 ([4]; SW780, 72 hours): 202 nM
- % Remaining (1 h) ([8]; 10 µM): 96.5%
- % Remaining (1 h) ([8]; 10 μM): 96.5%

Structure (SMILES): CCc1c2c(nc3ccc(OC(=O)N4CCC[C@H]4C(=O)N4CCN(c5ccc(-n6c(O)nnc6-c6cc(C(C)C)c(O)cc6O)cc5)CC4)cc13)-c1cc3c(c(=O)n1C2)COC(=O)[C@]3(O)CC [SDC-TRAP-0204, (S)—(S)-4,11-diethyl-4-hydroxy-3,14-dioxo-3,4,12,14-tetrahydro-1H-pyrano[3′,4′:6,7]indolizino[1,2-b]quinolin-9-yl 2-(4-(4-(3-(2,4-dihydroxy-5-isopropylphenyl)-5-hydroxy-4H-1,2,4-triazol-4-yl)phenyl)piperazine-1-carbonyl)pyrrolidine-1-carboxylate]
- IC50 [1]: > 10000 nM
- IC50 ([2]; BT-474, 72 h): 8060 nM
- IC50 ([3]; RT-112, 72 h): 1310 nM
- IC50 ([4]; SW780, 72 h): > 10000 nM

Structure (SMILES): Nc1cccc2c1CN(C1CCC(=O)NC1=O)C2=O (stereo not shown) [Lenalidomide, lenalidomide, reference compound]
- IC50 ([2]; BT-474, 72 hours): > 10000 nM
- IC50 ([3]; RT-112, 72 hours): > 10000 nM
- IC50 ([4]; SW780, 72 hours): > 10000 nM
- Tumor Conc. (female, SCID, mouse, in vivo, 24 h): 0.0574 nmol/g of tissue
- Tumor Conc. (female, SCID, mouse, in vivo, 48 h): 0.0143 nmol/g of tissue
- Plasma Conc. (mouse, in vivo): BQL
- Tumor Conc. (mouse, in vivo): BQL
- Mass Retention [5]: 26.0%

Structure (SMILES): CCNC(=O)c1nnc(-c2cc(C(C)C)c(O)cc2O)n1-c1ccc(C(=O)N2CCN(c3cc(C)c(OC(=O)Nc4cccc5c4CN(C4CCC(=O)NC4=O)C5=O)c(C)c3)CC2)cc1 (stereo not shown) [SDC-TRAP-0178, 4-(4-(4-(3-(2,4-dihydroxy-5-isopropylphenyl)-5-(ethylcarbamoyl)-4H-1,2,4-triazol-4-yl)benzoyl)piperazin-1-yl)-2,6-dimethylphenyl (2-(2,6-dioxopiperidin-3-yl)-1-oxoisoindolin-4-yl)carbamate]
- IC50 [1]: 170 nM and 91 nM
- IC50 ([1]; BT-474 cells, overnight): 91 nM
- IC50 ([2]; BT-474, 72 h): 37 nM
- IC50 ([3]; RT-112, 72 h): 29 nM
- IC50 ([4]; SW780, 72 h): > 10000 nM
- Plasma Conc. (after SDC-TRAP-0178, 1 h): 217000 nM
- Tumor Conc. (after SDC-TRAP-0178, 1 h): 12.8 nmol/g of tissue
- Tumor/Plasma Ratio (after SDC-TRAP-0178, 1 h): 0.0589
- Plasma Conc. (after SDC-TRAP-0178, 6 h): 4510 nM
- Tumor Conc. (after SDC-TRAP-0178, 6 h): 7.17 nmol/g of tissue
- Tumor/Plasma Ratio (after SDC-TRAP-0178, 6 h): 1.59
- Plasma Conc. (after SDC-TRAP-0178, 24 h): 28 nM
- Tumor Conc. (after SDC-TRAP-0178, 24 h): 2.81 nmol/g of tissue
- Tumor/Plasma Ratio (after SDC-TRAP-0178, 24 h): 100
- Plasma Conc. (after SDC-TRAP-0178, 48 h): 241 nM
- Tumor Conc. (after SDC-TRAP-0178, 48 h): 1.01 nmol/g of tissue
- Tumor/Plasma Ratio (after SDC-TRAP-0178, […]): 0.0179
- % Remaining (1 h) [6, 9]: 82.0%
- % Remaining (1 h) ([6]; mouse plasma, 37° C., 10 μM): 82.0%
